Reference: the supplement of paper PMC11208160

Assay: recombinant UMI read abundance after kanamycin selection (control-corrected) (log10(CPM+1)); higher = more efficient recombination; extreme values may be limits of the assay; sequences stand for … in AGTGCAGAGAAAATCGGCCAGTTTTCTCTGCCTGCAGTCCGCATGCCGTGGGACCCCTTGGGTTCTAACCTGTTGCCTAGATTTATGCAGCGGACTGCCTTTCTCCCAAAGTGATAAACCGG…AGGTTGGTTTCACT; site = the 11-nt donor
Summary of the method: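 Counts of recombinant UMIs were reported as log10(CPM+1). Before that, they were converted to CPM, averaged over replicates and scaled using control-derived factors. They came from PCR across the donor–target junction after Escherichia coli carrying the pair library and target plasmid was plated on IPTG (0.07 mM) plus kanamycin, or unselected, in two replicates each.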
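Note: IS621 bridge recombinase in Escherichia coli cells against a fixed T5 target plasmid.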

Sequence	recombinant UMI read abundance (log10)
AGGAAGACATGGACCGGTTTTCCCGGTAATCCGTATTTGAC (site AGGAAGACTGT)	2.64
AGGAAGACATGGACCGGTTTTCCCGGTAATCCGTATTTGAC (site AGGAAGACTTG)	0.571
AGGAAGACATGGACCGGTTTTCCCGGTAATCCGTATTTGCC (site AGGAAGACTAG)	0.42
AGGAAGACATGGACCGGTTTTCCCGGTAATCCGTATTTGCC (site AGGAAGACTCG)	0.723
AGGAAGACATGGACCGGTTTTCCCGGTAATCCGTATTTGCC (site AGGAAGACTGG)	1.84
AGGAAGACATGGACCGGTTTTCCCGGTAATCCGTATTTGCC (site AGGAAGACTTG)	1.8
AGGAAGACATGGACCGGTTTTCCCGGTAATCCGTATTTGGT (site AGGAAGACTAC)	2.1
AGGAAGACATGGACCGGTTTTCCCGGTAATCCGTATTTGGT (site AGGAAGACTTG)	0
AGGAAGCCATGGACCGGTTTTCCCGGTAATCCGTATTTGCC (site AGGAAGACTTG)	0
AGGAAGCCATGGACCGGTTTTCCCGGTAATCCGTATTTGCC (site AGGAAGCCTGG)	0
AGGAATACATGGACCGGTTTTCCCGGTAATCCGTATTTGCA (site AGGAAAACTTG)	0.656
AGGAATACATGGACCGGTTTTCCCGGTAATCCGTATTTGCA (site AGGAACACTTG)	1.48
AGGAATACATGGACCGGTTTTCCCGGTAATCCGTATTTGCA (site AGGAAGACTTG)	0.151
AGGAATACATGGACCGGTTTTCCCGGTAATCCGTATTTGCA (site AGGAATACTTG)	2.11
AGGAATACATGGACCGGTTTTCCCGGTAATCCGTATTTGGA (site AGGAAGACTTG)	0.341
AGGAATACATGGACCGGTTTTCCCGGTAATCCGTATTTGGA (site AGGAATACTTC)	1.69
AGGAATACATGGACCGGTTTTCCCGGTAATCCGTATTTGGG (site AGGAATACTCC)	0.394
AGGACAACATGGACCGGTTTTCCCGGTAATCCGTATTTGAC (site AGGACAACTGT)	2.26
AGGACAACATGGACCGGTTTTCCCGGTAATCCGTATTTGAC (site AGGACCACTGT)	0
AGGACAACATGGACCGGTTTTCCCGGTAATCCGTATTTGAC (site AGGACGACTGT)	0
AGGACAACATGGACCGGTTTTCCCGGTAATCCGTATTTGAC (site AGGACTACTGT)	0
AGGACGACATGGACCGGTTTTCCCGGTAATCCGTATTTGAC (site AGGACAACTGT)	2.09
AGGACGACATGGACCGGTTTTCCCGGTAATCCGTATTTGAC (site AGGACCACTGT)	0.378

Sequence	recombinant UMI read abundance (log10)
AGGACGACATGGACCGGTTTTCCCGGTAATCCGTATTTGAC (site AGGACGACTGT)	3.14
AGGACGACATGGACCGGTTTTCCCGGTAATCCGTATTTGAC (site AGGACTACTGT)	0
AGGACGACATGGACCGGTTTTCCCGGTAATCCGTATTTGCT (site AGGAAGACTTG)	0
AGGACGACATGGACCGGTTTTCCCGGTAATCCGTATTTGCT (site AGGACGACTAG)	2.52
AGGACTACATGGACCGGTTTTCCCGGTAATCCGTATTTGAA (site AGGACTACTAT)	1.41
AGGACTACATGGACCGGTTTTCCCGGTAATCCGTATTTGAA (site AGGACTACTCT)	0.127
AGGACTACATGGACCGGTTTTCCCGGTAATCCGTATTTGAA (site AGGACTACTGT)	0.477
AGGACTACATGGACCGGTTTTCCCGGTAATCCGTATTTGAA (site AGGACTACTTT)	1.13
AGGACTACATGGACCGGTTTTCCCGGTAATCCGTATTTGCC (site AGGACTACTGA)	0
AGGACTACATGGACCGGTTTTCCCGGTAATCCGTATTTGCC (site AGGACTACTGC)	0
AGGACTACATGGACCGGTTTTCCCGGTAATCCGTATTTGCC (site AGGACTACTGG)	2.23
AGGACTACATGGACCGGTTTTCCCGGTAATCCGTATTTGCC (site AGGACTACTGT)	0
AGGACTGCATGGACCGGTTTTCCCGGTAATCCGTATTTGAG (site AGGACTGCTCT)	1.79
AGGAGGACATGGACCGGTTTTCCCGGTAATCCGTATTTGCA (site AGGAAGACTTG)	2.35
AGGAGGACATGGACCGGTTTTCCCGGTAATCCGTATTTGCA (site AGGACGACTTG)	0.4
AGGAGGACATGGACCGGTTTTCCCGGTAATCCGTATTTGCA (site AGGAGGACTTG)	2.56
AGGAGGACATGGACCGGTTTTCCCGGTAATCCGTATTTGCA (site AGGATGACTTG)	0
AGGAGTACATGGACCGGTTTTCCCGGTAATCCGTATTTGAC (site AGGAATACTGT)	1.29
AGGAGTACATGGACCGGTTTTCCCGGTAATCCGTATTTGAC (site AGGACTACTGT)	0.225
AGGAGTACATGGACCGGTTTTCCCGGTAATCCGTATTTGAC (site AGGAGTACTGT)	2.08
AGGAGTACATGGACCGGTTTTCCCGGTAATCCGTATTTGAC (site AGGATTACTGT)	0.00638
AGGAGTACATGGACCGGTTTTCCCGGTAATCCGTATTTGTC (site AGGAGTACTGA)	2.17
AGGAGTCCATGGACCGGTTTTCCCGGTAATCCGTATTTGAA (site AGGAGTCCTTT)	1.07

Sequence	recombinant UMI read abundance (log10)
AGGATAACATGGACCGGTTTTCCCGGTAATCCGTATTTGGC (site AGGATAACTGC)	2.73
AGGATGACATGGACCGGTTTTCCCGGTAATCCGTATTTGTA (site AGGAAGACTTG)	0
AGGATGACATGGACCGGTTTTCCCGGTAATCCGTATTTGTA (site AGGATGACTTA)	2.6
AGGATGGCATGGACCGGTTTTCCCGGTAATCCGTATTTGGT (site AGGATGGCTAC)	1.79
AGGATTCCATGGACCGGTTTTCCCGGTAATCCGTATTTGTT (site AGGATTCCTAA)	0.226
AGGATTCCATGGACCGGTTTTCCCGGTAATCCGTATTTGTT (site CGGAATCCTAA)	0.0087
AGGCAACCATGGACCGGTTTTCCCGGTAATCCGTATTTGGG (site AGGCAACCTCC)	0.112
AGGCCGACATGGACCGGTTTTCCCGGTAATCCGTATTTGCA (site AGGAAGACTTG)	0
AGGCCGACATGGACCGGTTTTCCCGGTAATCCGTATTTGCA (site AGGCCGACTTG)	1.81
AGGCCTGCATGGACCGGTTTTCCCGGTAATCCGTATTTGAA (site AGGCCTGCTTT)	0.996
AGGCTTCCATGGACCGGTTTTCCCGGTAATCCGTATTTGCG (site AGGCTTCCTCG)	0.745
AGGGAGACATGGACCGGTTTTCCCGGTAATCCGTATTTGCA (site AGGAAGACTTG)	0.796
AGGGAGACATGGACCGGTTTTCCCGGTAATCCGTATTTGCA (site AGGCAGACTTG)	0.473
AGGGAGACATGGACCGGTTTTCCCGGTAATCCGTATTTGCA (site AGGGAGACTTG)	2.5
AGGGAGACATGGACCGGTTTTCCCGGTAATCCGTATTTGCA (site AGGTAGACTTG)	0.162
AGGGATCCATGGACCGGTTTTCCCGGTAATCCGTATTTGTT (site AGGGATCCTAA)	0.662
AGGGATCCATGGACCGGTTTTCCCGGTAATCCGTATTTGTT (site CGGAATCCTAA)	0
AGGGCTACATGGACCGGTTTTCCCGGTAATCCGTATTTGCG (site AGGGCTACTCG)	1.42
AGGGTGACATGGACCGGTTTTCCCGGTAATCCGTATTTGCA (site AGGAAGACTTG)	0.666
AGGGTGACATGGACCGGTTTTCCCGGTAATCCGTATTTGCA (site AGGGTGACTTG)	2.63
AGGTACCCATGGACCGGTTTTCCCGGTAATCCGTATTTGTG (site AGGTACCCTCA)	0.0796
AGGTACCCATGGACCGGTTTTCCCGGTAATCCGTATTTGTG (site AGGTCCCCTCA)	0.0158
